In US20050282818A1, “Ubiquitin ligase inhibitors” (Rigel Pharmaceuticals, Inc., priority 2004, published 2005) one finds IC50 data, which are given here for 23 compounds.

Test [1] has as its system A549 cells. Kind of test: Cell proliferation PAD assay, A549. Type of test: cell-based. The settings on record: Homo sapiens, 48 hours. Here is the method:
(§1) Cell lines used are available from American Type Culture Collection (ATCC), for example, cell cultures containing A549 (ATCC# CCL-185), HeLa (ATCC# CCL-2), HCT116 ATTC# CCL-247), and H1299 (ATCC# CRL-5803) cells were maintained in T175 flasks following the ATCC recommended media and handling procedures. […] A 20,000 cells/ml solution was made for plating. Cells were plated in black Packard 96 well plates by placing 100 μl per well (2,000 cells per well). […] The definitions of the cell types used are as follows: A549 is lung carcinoma; HI 299 is non-small cell lung carcinoma; HI 155 is non-small cell lung carcinoma; AsPC-1 is pancreatic adenocarcinoma; Caov-3 is ovarian adenocarcinoma; COLO 205 is colorectal adenocarcinoma; DLD-1 colorectal adenocarcinoma; HCT116 is colorectal carcinoma; DU 145 is prostate carcinoma; ES-2 is ovarian clear cell carcinoma; H460 is large cell lung carcinoma; HELA is cervical adenocarcinoma; MIA PaCa-2 is pancreatice carcinoma; OVCAR-3 is ovarian adenocarcinoma; OVCAR8 is ovarian carcinoma; PC3 is prostate adenocarcinoma; SK-OV-3 is ovarian adenocarcinoma; SU86.86 is pancreatic carcinoma; TOV-21G is avarian clear cell carcinoma; U2OS is bone osteosarcoma; is ASPC-I is pancreatic adenocarcinoma; BXPC-3 is pabcreatic adenocarcinoma; HL60 is promyeloblast promyelocytic leukemia; K562 is bone marrow chronic myelogenous leukemia; L1210 is mouse lymphocytic leukemia; MOLT3 is T lymphoblast acute lymphoblastic leukemia; MOLT4 is T lymphoblast acute lymphoblastic leukemia; SW620 is colorectal adenocarcinoma; THP-1 is monocyte acute monocytic leukemia; U937 is histiocytic lymphoma; and UACC-257 is melanoma.
(§2) Compounds and additional media were added 24 hours after cell plating. […] All compound testing was done in duplicate using 6.3 fold dilutions starting with 10 mM. […] Taxol and at least one additional control were run on all plates. Three microliters of the compound master plate were added to deep well blocks containing 750 μl of RPMI media. One hundred microliters were transferred from the compound/media deep well blocks to the plated cells resulting in a 500 fold dilution of the compounds. Cells were grown at 37° C., 5% CO2 for 48 hours.
(§3) Cells to be analyzed by photography were fixed and stained. One hundred microliters of media were removed and 100 μl of 9.3% formamide was added to each well. Plates were left on the benchtop for 45 minutes. A staining solution containing 1.55 μl of 1 mg/ml DAPI added to 18.75 ml PBS was warmed for 15 minutes at 37° C. The cells were aspirated prior to washing with 100 μl of PBS. Seventy microliters of PBS were aspirated and 170 μl of the DAPI solution were added to each well of fixed cells. Plates were left at room temperature for one hour then aspirated and washed twice with 100 μl of PBS. The stained cells were left at 4° C. for a minimum of 16 hours before photographic analysis with Array Scan II (Cellomics). Analysis of the photographic images to determine numbers of live cells (proliferation), apoptotic cells and dead cells, were according to the methods described in U.S. Utility patent application Ser. No. 10/652,440, which incorporated herein in its entirety.

Test [2] deals with T1, TRAF6/Uev1A/Ubc13 (Homo sapiens, UniProt Q9Y4K3).
T1 sequence (Q9Y4K3 1-522): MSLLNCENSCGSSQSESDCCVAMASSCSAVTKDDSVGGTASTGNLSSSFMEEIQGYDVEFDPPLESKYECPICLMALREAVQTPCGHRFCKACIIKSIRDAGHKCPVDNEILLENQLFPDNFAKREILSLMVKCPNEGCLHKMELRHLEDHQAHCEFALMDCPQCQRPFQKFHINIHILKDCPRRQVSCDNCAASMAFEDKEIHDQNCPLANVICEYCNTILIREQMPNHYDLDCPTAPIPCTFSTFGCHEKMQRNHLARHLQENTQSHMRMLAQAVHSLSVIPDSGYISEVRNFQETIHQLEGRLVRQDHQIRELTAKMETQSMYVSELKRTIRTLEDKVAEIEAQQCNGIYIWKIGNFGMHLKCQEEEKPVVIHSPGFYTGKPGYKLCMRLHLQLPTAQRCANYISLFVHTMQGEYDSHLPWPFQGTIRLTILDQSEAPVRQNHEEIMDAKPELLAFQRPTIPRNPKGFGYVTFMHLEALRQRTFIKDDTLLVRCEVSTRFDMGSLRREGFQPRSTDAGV
Nature of the test: TRAF6/Uev1A/Ubc13 plate-based ubiquitin ligase assay. Type of test: biochemical. The method, then: For the assays described below, the TRAF6/Uev1A/UBC13 assay is the biochemical plate-based assay of TRAF6 ligase activity using Ubc13 as the E2 enzyme. The gel-based assay is the biochemical solution-based TRAF6 ligase assay (by SDS-PAGE and Western blot) to confirm the plate-based ELISA assay. The APC assay is an assay which is another E3 ligase (APC2/APC11) biochemical assay.
A 96-well Ni-plate was blocked with 100 μl of 1% casein in PBS for 1 hour at room temperature. The plates were then washed three times with 200 μl of 1×PBS and 80 μl of a reaction buffer was added per well which contained 50 ng of Flag-ubiquitin, 50 ng of His-ubiquitin, 62.5 mM Tris pH 7.5, 6.25 mM MgCl2, 1.0 mM DTT, and 2 μM ATP. To each well was added 10 μl of a solution of the compound in DMSO. The reaction was started by adding 10 μl of a solution consisting of 10 ng human E1, 25 ng each of Uev1a and Ubc13, and 100 ng TRAF6 in the reaction buffer. The plates were shaken for 10 minutes and incubate at room temperature for 1 hour. After the incubation, the plates were washed three times with 200 μl 1×PBS in 0.05% Tween and 100 μl of an antibody mix consisting of anti-Flag (1:30,000 dilution; Sigma F-3165) and anti-Mouse IgG-HRP (1/150,000 dilution; Jackson Immunoresearch #115-035-146) in 1×PBS with 0.25% BSA. The plates were then incubated for another 1 hour at room temperature, and after incubation the plate was washed three times with 200 μl 1×PBS with 0.05% Tween. The amount of ubiquitin was measured by adding 100 μl of Lumino substrate (1:5 dilution) and reading the luminescence with a fluorimeter.
Table 2 below illustrates the inhibitory activity of the compounds of the invention determined by the TRAF6/Uev1A/Ubc13 assay as well as in the ICAM, APC and the ROC1/CUL1 Ubiquitin Ligase Assay (SCF Assay). The IC50 values were determined using a various concentrations of the compounds.

Test [3] concerns H1299 cells. Kind of test: Cell proliferation PAD assay, H1299. Format: cell-based. The settings on record: Homo sapiens, NCI-H1299, 3pt, 48 hours, read-out: H1299 3pt. The method, then: as §1, §2, §3

Where two headings read alike, the source gives them in different places.

For `COC(=O)c1ccc(NS(=O)(=O)c2ccc(Cl)c3nonc23)cc1` [compound 8, Methyl 4-{[(7-chloro-2,1,3-benzoxadiazol-4-yl)sulfonyl]amino}benzoate], the IC50 was ≥ 20 µM in test [1] (3pt, read-out: A549 3pt) and ≥ 20 µM in test [2].

Consider `O=S(=O)(Nc1ccc(F)c(Cl)c1)c1cccc2nonc12` [compound 14, N-(3-chloro-4-fluorophenyl)-2,1,3-benzoxadiazole-4-sulfonamide], for which the IC50 was ≥ 20 µM in test [1] (3pt, read-out: A549 3pt) and ≥ 20 µM in test [3].

As for `O=S(=O)(Nc1c(F)cccc1F)c1cccc2nonc12` [compound 15, N-(2,6-difluorophenyl)-2,1,3-benzoxadiazole-4-sulfonamide], the IC50 in test [1] (3pt, read-out: A549 3pt) was ≥ 20 µM; in test [3], 1 to 20 µM.

For the compound `O=S(=O)(Nc1c(F)cc(F)cc1F)c1cccc2nonc12` [compound 16, N-(2,4,6-trifluorophenyl)-2,1,3-benzoxadiazole-4-sulfonamide], the IC50 in test [1] (3pt, read-out: A549 3pt) is ≥ 20 µM; in test [3], ≥ 20 µM.

For the compound `Cc1cc(NS(=O)(=O)c2cccc3nonc23)ccc1I` [compound 18, N-(4-iodo-3-methylphenyl)-2,1,3-benzoxadiazole-4-sulfonamide], the IC50 in test [1] (3pt, read-out: A549 3pt) was ≥ 20 µM; in test [3], ≥ 20 µM.

Turning to `Cc1cc(F)ccc1NS(=O)(=O)c1cccc2nonc12` [compound 19, N-(4-fluoro-2-methylphenyl)-2,1,3-benzoxadiazole-4-sulfonamide], the IC50 was ≥ 20 µM in test [1] (3pt, read-out: A549 3pt) and ≥ 20 µM in test [3].

On to `Cc1ccc(C)c(NS(=O)(=O)c2cccc3nonc23)c1` [compound 21, N-(2,5-dimethylphenyl)-2,1,3-benzoxadiazole-4-sulfonamide], for which the IC50 in test [1] (3pt, read-out: A549 3pt) was ≥ 20 µM; in test [3], 1 to 20 µM.

As for `O=S(=O)(Nc1cccc(F)c1)c1cccc2nonc12` [compound 22, N-(3-fluorophenyl)-2,1,3-benzoxadiazole-4-sulfonamide], the IC50 was ≥ 20 µM in test [1] (3pt, read-out: A549 3pt) and ≥ 20 µM in test [3].

`O=S(=O)(Nc1ccc(F)c(F)c1)c1cccc2nonc12` [compound 23, N-(3,4-difluorophenyl)-2,1,3-benzoxadiazole-4-sulfonamide]: the IC50 in test [1] (3pt, read-out: A549 3pt) was ≥ 20 µM; in test [3] it was ≥ 20 µM.

In the case of `Cc1cc2cc(NS(=O)(=O)c3cccc4nonc34)ccc2[nH]1` [compound 24, N-(2-methyl-1H-indol-5-yl)-2,1,3-benzoxadiazole-4-sulfonamide], the IC50 was in the range of 1 to 20 µM in test [1] (3pt, read-out: A549 3pt) and 1 to 20 µM in test [3].

Take `O=S(=O)(Nc1cc(F)ccc1F)c1cccc2nonc12` [compound 27, N-(2,5-difluorophenyl)-2,1,3-benzoxadiazole-4-sulfonamide]: the IC50 in test [1] (3pt, read-out: A549 3pt) is ≥ 20 µM; in test [3] it was ≥ 20 µM.

In the case of `O=S(=O)(Nc1cccc(Cl)c1)c1cccc2nonc12` [compound 43, N-(3-chlorophenyl)-2,1,3-benzoxadiazole-4-sulfonamide], the IC50 in test [1] (3pt, read-out: A549 3pt) is 1 to 20 µM; in test [3], ≥ 20 µM.

With `O=S(=O)(NCc1ccccn1)c1cccc2nonc12` [compound 49, N-(pyridin-2-ylmethyl)-2,1,3-benzoxadiazole-4-sulfonamide], the IC50 was ≥ 20 µM in test [1] (3pt, read-out: A549 3pt) and ≥ 20 µM in test [3].

For `COCCNS(=O)(=O)c1cccc2nonc12` [compound 50, N-(2-methoxyethyl)-2,1,3-benzoxadiazole-4-sulfonamide], the IC50 is ≥ 20 µM in test [1] (3pt, read-out: A549 3pt) and ≥ 20 µM in test [3].

Turning to `O=[N+]([O-])c1c(N2CCCCC2)cc(N2CCC(O)(c3ccccc3)CC2)c2nonc12` [compound 301, 1-(7-nitro-6-piperidin-1-yl-2,1,3-benzoxadiazol-4-yl)-4-phenylpiperidin-4-ol], the IC50 in test [2] was ≥ 20 µM.

`O=C1OC2(CCN(c3ccc([N+](=O)[O-])c4nonc34)CC2)c2ccccc21` [compound 302, 1′-(7-nitro-2,1,3-benzoxadiazol-4-yl)-3H-spiro[2-benzofuran-1,4′-piperidin]-3-one]: in test [2], the IC50 lay in the range of 1 to 20 µM.

On to `CCN(CC)c1cc(N2CCC3(CC2)OC(=O)c2ccccc23)c2nonc2c1[N+](=O)[O-]` [compound 303, 1′-[6-(diethylamino)-7-nitro-2,1,3-benzoxadiazol-4-yl]-3H-spiro[2-benzofuran-1,4′-piperidin]-3-one], for which the IC50 in test [2] is ≥ 20 µM.

As to `O=C1OC2(CCN(c3cc(N4CCCCC4)c([N+](=O)[O-])c4nonc34)CC2)c2ccccc21` [compound 304, 1′-(7-nitro-6-piperidin-1-yl-2,1,3-benzoxadiazol-4-yl)-3H-spiro[2-benzofuran-1,4′-piperidin]-3-one], the IC50 in test [2] was ≥ 20 µM.

`FC(F)(F)c1cccc(-c2cccc3nonc23)c1` [compound 305, 4-[3-(Trifluoromethyl)phenyl]-2,1,3-benzoxadiazole]: the IC50 in test [2] was ≥ 20 µM.

On to `Cc1cccc(-c2cccc3nonc23)c1` [compound 306, 4-(3-Methylphenyl)-2,1,3-benzoxadiazole], for which the IC50 is ≥ 20 µM in test [1] (6pt, read-out: A549 6pt) and ≥ 20 µM in test [2].

For the compound `COC(=O)c1ccc(NS(=O)(=O)c2ccc(Sc3ccc4ccccc4n3)c3nonc23)cc1` [compound 316, Methyl 4-({[7-(quinolin-2-ylthio)-2,1,3-benzoxadiazol-4-yl]sulfonyl}amino)benzoate], the IC50 in test [2] was ≥ 20 µM.

For the compound `COc1ccccc1-c1cc(Cl)c2nonc2c1` [compound 330, 4-Chloro-6-(2-methoxyphenyl)-2,1,3-benzoxadiazole], in test [1] (6pt, read-out: A549 6pt), the IC50 was ≥ 20 µM.

Consider `O=[N+]([O-])c1cccc(-c2cc(Cl)c3nonc3c2)c1` [compound 331, 4-Chloro-6-(3-nitrophenyl)-2,1,3-benzoxadiazole], for which the IC50 in test [1] (6pt, read-out: A549 6pt) is ≥ 20 µM.
